Test results reported in article PMC9687610, “Adenosine-Mimicking Derivatives of 3-Aminopyrazine-2-Carboxamide: Towards Inhibitors of Prolyl-tRNA Synthetase with Antimycobacterial Activity” (Biomolecules, 2022).
In brackets after ≈: the same amount, converted by molar mass.

Legend:
[1] = system: Mtb laboratory ID MATI; details: Laboratory ID MATI, cited from earlier work; for Susceptibility: CLSI breakpoints 2021; for Minimum inhibitory concentration: tested and interpreted according to CLSI breakpoints in 2021
[2] = system: Mtb laboratory ID IZAK; details: Laboratory ID IZAK, cited from earlier work; for Susceptibility: CLSI breakpoints 2020; for Minimum inhibitory concentration: tested and interpreted according to CLSI breakpoints in 2020
[3] = system: Mycobacterium tuberculosis H37Rv CNCTC My 331/88 (ATCC 27294); assay: MABA microdilution, Mtb H37Rv; type: cell-based; details: Mycobacterium tuberculosis; read-out: Mtb H37Rv MIC
[4] = system: Mycobacterium tuberculosis H37Ra ITM-M006710 (ATCC 9431); assay: Microplate Alamar Blue Assay (MABA), Mtb H37Ra; type: cell-based; details: Middlebrook 7H9 broth pH 6.6, resazurin after 120 h; for MIC: Mycobacterium tuberculosis, 120 h, pH 6.6, MABA, read-out: Mtb H37Ra MIC; for Mtb H37Ra MIC: MABA
[5] = system: HepG2 human hepatocellular carcinoma cells; assay: In vitro HepG2 cytotoxicity (CellTiter 96); details: Homo sapiens, HepG2, 24 h, read-out: HepG2 IC50, 24 h incubation; * limit = highest evaluated concentration (precipitation in medium); ** over the 1000 µM limit
[6] = system: M. aurum DSM 43999 (ATCC 23366); assay: Microplate Alamar Blue Assay (MABA), M. aurum; type: cell-based; details: MABA, resazurin after 72 h; for MIC: Mycolicibacterium aurum, read-out: M. aurum MIC
[7] = system: Mycobacterium smegmatis DSM 43465 (ATCC 607); assay: Microplate Alamar Blue Assay (MABA), M. smegmatis; type: cell-based; details: MABA, resazurin after 48 h; for MIC: Mycolicibacterium smegmatis, read-out: M. smegmatis MIC
[8] = system: Candida albicans CCM 8320 (ATCC 24433); assay: Antifungal microdilution broth (EUCAST), CA; type: cell-based; details: read after 24 h; read-out: CA MIC
[9] = system: Klebsiella pneumoniae CCM 4415 (ATCC 10031); details: 24 h
[10] = system: Staphylococcus aureus subsp. aureus CCM 4223 (ATCC 29213); assay: Antibacterial microdilution broth (EUCAST), SA; type: cell-based; details: read after 24 h; read-out: SA MIC
[11] = system: Enterococcus faecalis CCM 4224 (ATCC 29212); assay: Antibacterial microdilution broth (EUCAST), EF; type: cell-based; details: read after 24 h; read-out: EF MIC
[12] = system: Staphylococcus aureus subsp. aureus methicillin-resistant (MRSA) CCM 4750 (ATCC 43300); assay: Antibacterial microdilution broth (EUCAST), MRSA; type: cell-based; details: read after 24 h; read-out: MRSA MIC
[13] = system: Trichophyton interdigitale CCM 8377 (ATCC 9533); assay: Antifungal microdilution broth (EUCAST), TI; type: cell-based; details: read after 72 h
[14] = system: Candida parapsilosis CCM 8260 (ATCC 22019); assay: Antifungal microdilution broth (EUCAST), CP; type: cell-based; details: read after 24 h; read-out: CP MIC
[15] = system: Acinetobacter baumannii DSM 30007 (ATCC 19606); assay: Antibacterial microdilution broth (EUCAST), ACI; type: cell-based; details: read after 24 h; read-out: ACI MIC
[16] = system: Lichtheimia corymbifera CCM 8077; assay: Antifungal microdilution broth (EUCAST), LC; type: cell-based; details: read after 24 h; read-out: LC MIC
[17] = system: Pseudomonas aeruginosa CCM 3955 (ATCC 27853); assay: Antibacterial microdilution broth (EUCAST), PA; type: cell-based; details: read after 24 h
[18] = system: Candida tropicalis CCM 8264 (ATCC 750); assay: Antifungal microdilution broth (EUCAST), CT; type: cell-based; details: read after 24 h; read-out: CT MIC
[19] = system: Aspergillus fumigatus ATCC 204305; assay: Antifungal microdilution broth (EUCAST), AF; type: cell-based; details: read after 24 h; read-out: AF MIC
[20] = system: Escherichia coli CCM 3954 (ATCC 25922); assay: Antibacterial microdilution broth (EUCAST), EC; type: cell-based; details: read after 24 h; read-out: EC MIC
[21] = system: Aspergillus flavus CCM 8363; assay: Antifungal microdilution broth (EUCAST), AFla; type: cell-based; details: read after 24 h; read-out: AFla MIC
[22] = system: Candida krusei CCM 8271 (ATCC 6258); assay: Antifungal microdilution broth (EUCAST), CK; type: cell-based; details: read after 24 h; read-out: CK MIC

Compound | Susceptibility [1] | Minimum inhibitory concentration [1] | Susceptibility [2] | Minimum inhibitory concentration [2] | MIC [3] | MIC [4] | IC50 [5] | MIC [6] | Mtb H37Ra MIC [4] | MIC [7] | further results
NC(=O)c1cnccn1 [PZA, pyrazinamide] | resistant | > 128 µg/mL | resistant | > 16 µg/mL | – | – | – | – | – | – | –
CC[C@@H](CO)NCCN[C@@H](CC)CO [EMB, ethambutol] | sensitive | 0.5 µg/mL (≈ 2.45 µM) | sensitive | 0.5 µg/mL (≈ 2.45 µM) | 0.39 µg/mL (≈ 1.91 µM) | 0.5 µg/mL (≈ 2.45 µM) | – | – | – | – | –
NNC(=O)c1ccncc1 [INH, isoniazid] | resistant | – | – | – | 0.2 µg/mL (≈ 1.46 µM) | 0.25 µg/mL (≈ 1.82 µM) | > 1000 µM | 3.91 µg/mL (≈ 28.5 µM) | 0.25 to 0.5 µg/mL | 15.6 µg/mL (≈ 114 µM) | –
CO[C@H]1/C=C/O[C@@]2(C)Oc3c(C)c(O)c4c(O)c(c(/C=N/N5CCN(C)CC5)c(O)c4c3C2=O)NC(=O)/C(C)=C\C=C\[C@H](C)[C@H](O)[C@@H](C)[C@@H](O)[C@@H](C)[C@H](OC(C)=O)[C@@H]1C [RIF, rifampicin] | resistant | > 8 µg/mL | resistant | > 8 µg/mL | – | 0.003 µg/mL (≈ 0.00365 µM) | > 500 µM | 0.39 µg/mL (≈ 0.474 µM) | – | 12.5 µg/mL (≈ 15.2 µM) | –
COC(=O)c1nccnc1NC(=O)c1ccccc1 [Compound 1e] | – | – | – | – | – | – | – | – | ≥ 500 µg/mL | – | MIC [8]: > 500 µM; KP MIC [9]: > 500 µM; M. aurum MIC [6]: 250 µg/mL; MIC [10]: > 500 µM; MIC [11]: > 500 µM; MIC [12]: > 500 µM; TI MIC [13]: > 500 µM; MIC [14]: > 500 µM; MIC [15]: > 500 µM; MIC [16]: > 500 µM; PA MIC [17]: > 500 µM; MIC [18]: > 500 µM; M. smegmatis MIC [7]: 125 µg/mL; MIC [19]: > 500 µM; MIC [20]: > 500 µM; MIC [21]: > 500 µM; MIC [22]: > 500 µM
[H]/N=C(/N)N[C@H]1[C@H](O)[C@@H](O)[C@H](O[C@@H]2O[C@@H](C)[C@](O)(C=O)[C@H]2O[C@@H]2O[C@@H](CO)[C@H](O)[C@@H](O)[C@@H]2NC)[C@@H](N/C(N)=N\[H])[C@@H]1O [STM, streptomycin] | resistant | > 16 µg/mL | resistant | 4 µg/mL (≈ 6.88 µM) | – | 0.5 µg/mL (≈ 0.86 µM) | – | – | – | – | –
